Experimental findings from EP0920315B1, “TREATMENT OF UPPER AIRWAY ALLERGIC RESPONSES WITH A COMBINATION OF HISTAMINE RECEPTOR ANTAGONISTS” (SCHERING CORPORATION, priority 1996, dated 1998) are described below.

The subject of experiment [1] is Adult cats. The experiment is described as follows: Nasal airway resistance (NAR) after aerosolized Compound 48/80 in anesthetized cats. In kind it is in vivo. From the text:
Adult cats are anesthetized with intraperitoneal injections of sodium pentobarbital. The right femoral artery and vein are cannulated for measurement of blood pressure with a pressure transducer, and for the administration of drugs. The animals are paralyzed with intravenous gallamine triethiodide and subsequently mechanically ventilated with room air, using an animal ventilator. After isolation of the cervical […], a cuffed endotracheal tube is advanced rostrally into the posterior nasopharynx and inflated to form an air-tight seal, allowing continuous measurement of pressure changes within the nasal cavity. The right nasal airway is occluded with dental impression compound, and humidified air is passed through the left nasal airway at about 1.7 liters per minute. By means of pressure transducers, nasal airway pressure and insufflation pressure can be derived and electronically recorded.
Nasal airway resistance (NAR) is determined by dividing the pressure within the nasal cavity (expressed in centimeters of water) by the air flow rate (expressed in liters per minute). Measurements with 18 subject animals yield an average baseline NAR of 2.6.
The known histamine releaser "Compound 48/80" (the condensation product of N-methyl-p-methoxyphenethylamine with formaldehyde, sold by Sigma Chemical Company, St. Louis, Missouri, USA), as a 1.0 percent solution in 0.9 percent aqueous saline solution, is aerosolized into the air stream for 2 minutes to induce an increased NAR. This effect is used to study the decongestant effects of various test substances, administered to the animals intravenously 10 minutes prior to the introduction of Compound 48/80. These substances include 0.9 percent aqueous saline (normal saline "Vehicle"), phenylpropanolamine hydrochloride at 1.0 mg/Kg of the free drug, thioperamide maleate at 10 mg/Kg of the free drug and chlorpheniramine maleate at 0.8 mg/Kg of the free drug, all of the drug compounds being in solution in 0.9 percent aqueous saline.
The experiment of the preceding example is repeated, but the intravenous drugs are varying amounts of thioperamide (administered as the maleate), in solution together with a constant 0.8 mg/Kg of chlorpheniramine ("CPA," administered as the maleate).
The experiment of preceding Example 1 is repeated, but the intravenous drug administered is clobenpropit in varying amounts, either alone or in solution together with a constant 0.8 mg/Kg of chlorpheniramine ("CPA," administered as the maleate).
To test the statement in U.S. Patent 5,217,986 that verongamine itself has decongestant activity, an experiment similar to that of preceding Example 1, but with a different vehicle, is conducted. The following results are obtained:
The experiment of preceding Example 3 is conducted, using loratadine as the antihistaminic compound at 3 mg/Kg, administered in a solution ("Vehicle") which is 30 percent Dimethylsulfoxide, 40 percent Ethanol and 30 percent normal saline, and using thioperamide as the H3 receptor antagonist at 10 mg/Kg.

The target of experiment [2] is T1, histamine H3 receptor (Cavia porcellus, UniProt Q9JI35).
T1 construct: determined by a guinea pig brain membrane assay; from tissue; host or cells: guinea pig brain membranes
As to the kind of experiment: Guinea pig brain membrane binding assay (displacement of radiolabeled N-alpha-methylhistamine, Korte et al.). From the text:
A particularly useful screening assay measures binding to sites in guinea pig brain membranes. This test is described in detail by Korte et al., "Characterization and Tissue Distribution of H3 Histamine Receptors in Guinea Pigs by N^α -Methylhistamine," in Biochemical and Biophysical Research Communications, Vol. 168, pages 979-986 (1990), and quantifies the displacement of bound radiolabeled N" - methylhistamine from tissues by candidate compounds. Results are expressed as "Ki" values, in nanoMolar (nM) units, which values can be considered as being dissociation constants for the H3 antagonist on the H3 receptor system, or an index of antagonist affinity for the receptor. The present inventors have evidence that decongestant activity in their invention for a given H3 antagonist concentration can be predicted to increase as the Ki value obtained from the assay for an antagonist decreases. In general, Ki values less than about 200 nM are considered necessary for an agent to be useful as an H3 antagonist in the invention.
The affinity of various histamine H3 receptor antagonists for binding sites is determined by a guinea pig brain membrane assay, according to the procedure of Korte et al., Biochemical and Biophysical Research Communications, Vol. 168, pages 979-986 (1990).

Setting [3] is: Example 1, i.v. 10 minutes prior to Compound 48/80, single drugs in 0.9 percent saline: thioperamide 10 mg/Kg, chlorpheniramine 0.8 mg/Kg, phenylpropanolamine 1.0 mg/Kg, NAR = cm of water / liters per minute, Vehicle 9.1.

pKi: −log10 of the molar value. Read-outs that look alike come from different tables or passages of the source.

T1 sequence (Q9JI35 whole entry): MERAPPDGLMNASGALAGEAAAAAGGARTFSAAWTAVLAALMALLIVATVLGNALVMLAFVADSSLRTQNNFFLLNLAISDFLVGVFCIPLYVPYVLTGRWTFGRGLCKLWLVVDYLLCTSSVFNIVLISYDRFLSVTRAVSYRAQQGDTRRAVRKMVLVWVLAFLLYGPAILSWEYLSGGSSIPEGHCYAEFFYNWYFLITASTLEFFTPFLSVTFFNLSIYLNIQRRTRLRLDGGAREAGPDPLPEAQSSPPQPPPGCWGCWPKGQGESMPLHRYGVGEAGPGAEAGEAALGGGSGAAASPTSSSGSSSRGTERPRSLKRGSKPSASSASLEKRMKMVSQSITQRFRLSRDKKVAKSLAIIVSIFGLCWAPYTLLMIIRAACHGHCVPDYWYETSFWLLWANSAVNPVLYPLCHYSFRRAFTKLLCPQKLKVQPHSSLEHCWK

In turn, `CN(C)CCC(c1ccc(Cl)cc1)c1ccccn1` (stereo not drawn) [Chlorpheniramine, chlorpheniramine] registered an NAR in experiment [1] (setting [3]) of 6.0. By pKi is commonly meant the Ki on a negative log10 scale, so that one unit is a factor of ten. `NC(=NCc1ccc(Cl)cc1)SCCCc1cnc[nH]1` [Clobenpropit, clobenpropit] came in with an NAR in experiment [1] (Example 3, Clobenpropit 1.0 mg/Kg alone i.v., Vehicle 9.1) of 8.5. The pKi in experiment [2] was 10.00. With `CCOC(=O)N1CCC(=C2c3ccc(Cl)cc3CCc3cccnc32)CC1` [Loratadine, loratadine], in experiment [1] (Example 6, loratadine 3 mg/Kg, thioperamide 10 mg/Kg, vehicle 30 percent Dimethylsulfoxide, 40 percent Ethanol, 30 percent normal saline, Vehicle 12.6), the NAR stood at 10.2. Turning to `CC(N)C(O)c1ccccc1` (stereo not drawn) [Phenylpropanolamine, phenylpropanolamine], in experiment [1] (setting [3]), the NAR worked out at 2.9. Take `S=C(NC1CCCCC1)N1CCC(c2cnc[nH]2)CC1` [Thioperamide, thioperamide]: in experiment [1] (setting [3]), the NAR came out at 6.7. The same compound showed a pKi in experiment [2] of 7.92. Consider `COc1ccc(C/C(=N\O)C(=O)NCCc2c[nH]cn2)cc1Br` [Verongamine, verongamine], for which the NAR in experiment [1] (Example 5, Verongamine 10 mg/Kg, different vehicle, Vehicle 7.8) turned out to be 7.3. In addition, the pKi in experiment [2] (guinea pig brain membranes, read-out: Ki) is 6.55.
